Results from US6949542B2, “Dihydro-benzo[b][1,4]diazepin-2-one derivatives” (Hoffman-La Roche Inc., priority 2002, dated 2005).

For `O=C1CC(c2cccc(-c3ncccn3)c2)=Nc2ccc(C(F)(F)F)cc2N1` [Example 338, 4-(3-Pyrimidin-2-yl-phenyl)-8-trifluoromethyl-1,3-dihydro-benzo[b][1,4]diazepin-2-one], which melting point is on record?
Its melting point is 236 to 237 °C.

Which melting point does the source give for `O=C1CC(c2cccc(-c3ncccn3)c2)=Nc2ccc(Cl)cc2N1` [Example 339, 8-Chloro-4-(3-pyrimidin-2-yl-phenyl)-1,3-dihydro-benzo[b][1,4]diazepin-2-one] here?
The melting point was 217 to 222 °C.

For `O=C1CC(c2cccc(-c3ncccn3)c2)=Nc2cc(Cl)c(Cl)cc2N1` [Example 340, 7,8-Dichloro-4-(3-pyrimidin-2-yl-phenyl)-1,3-dihydro-benzo[b][1,4]diazepin-2-one], which melting point is on record?
Its melting point is 227 to 230 °C.

For `Cc1nnc(-c2cccc(C3=Nc4cc(N(C)C)c(C(F)(F)F)cc4NC(=O)C3)c2)nc1C` [Example 343, 7-Dimethylamino-4-[3-(5,6-dimethyl-[1,2,4]triazin-3-yl)-phenyl]-8-trifluoromethyl-1,3-dihydro-benzo[b][1,4]diazepin-2-one], which melting point is on record?
Its melting point is 233 to 236 °C.

With `Cc1cc(C2CC2)ncc1-c1cccc(C2=Nc3ccc(C(F)(F)F)cc3NC(=O)C2)c1` [Example 344, 4-[3-(6-Cyclopropyl-4-methyl-pyridin-3-yl)-phenyl]-8-trifluoromethyl-1,3-dihydro-benzo[b][1,4]diazepin-2-one] as the compound, how does the melting point read?
Its melting point is 119 °C.

Which melting point does the source give for `O=C1CC(c2cccc(-c3ccnc(C4CC4)c3)c2)=Nc2ccc(C(F)(F)F)cc2N1` [Example 346, 4-[3-(2-Cyclopropyl-pyridin-4-yl)-phenyl]-8-trifluoromethyl-1,3-dihydro-benzo[b][1,4]diazepin-2-one] here?
Its melting point is 181 °C.

With `Cc1cc2c(cc1C(F)(F)F)NC(=O)CC(c1cccc(-c3ccnc(C4CC4)c3)c1)=N2` [Example 347, 4-[3-(2-Cyclopropyl-pyridin-4-yl)-phenyl]-7-methyl-8-trifluoromethyl-1,3-dihydro-benzo[b][1,4]diazepin-2-one] as the compound, how does the melting point read?
Its melting point is 232 °C.

With `CCOc1cc2c(cc1C(F)(F)F)NC(=O)CC(c1cccc(-c3ccnc(C4CC4)c3)c1)=N2` [Example 348, 4-[3-(2-Cyclopropyl-pyridin-4-yl)-phenyl]-7-ethoxy-8-trifluoromethyl-1,3-dihydro-benzo[b][1,4]diazepin-2-one] as the compound, how does the melting point read?
The melting point was 244 °C.

For `O=C1CC(c2cccc(-c3ccnc(C4CC4)c3)c2)=Nc2cc(OCC(F)(F)F)c(C(F)(F)F)cc2N1` [Example 349, 4-[3-(2-Cyclopropyl-pyridin-4-yl)-phenyl]-7-(2,2,2-trifluoro-ethoxy)-8-trifluoromethyl-1,3-dihydro-benzo[b][1,4]diazepin-2-one], which melting point is on record?
Its melting point is 218 °C.

With `Cc1cc(-c2cccc(C3=Nc4cc(C5CC5)c(C(F)(F)F)cc4NC(=O)C3)c2)ccn1` [Example 350, 7-Cyclopropyl-4-[3-(2-methyl-pyridin-4-yl)-phenyl]-8-trifluoromethyl-1,3-dihydro-benzo[b][1,4]diazepin-2-one] as the compound, how does the melting point read?
Its melting point is 205 to 211 °C.

For `Cc1cc2c(cc1C(F)(F)F)NC(=O)CC(c1cccc(-c3ccnc(C4CCCC4)c3)c1)=N2` [Example 351, 4-[3-(2-Cyclopentyl-pyridin-4-yl)-phenyl]-7-methyl-8-trifluoromethyl-1,3-dihydro-benzo[b][1,4]diazepin-2-one], which melting point is on record?
Its melting point is 218 to 219 °C.

Which melting point does the source give for `O=C1CC(c2cccc(-c3ccnc(C4CCCC4)c3)c2)=Nc2ccc(C(F)(F)F)cc2N1` [Example 352, 4-[3-(2-Cyclopentyl-pyridin-4-yl)-phenyl]-8-trifluoromethyl-1,3-dihydro-benzo[b][1,4]diazepin-2-one] here?
Its melting point is 165 to 167 °C.

For `CCOc1cc2c(cc1C(F)(F)F)NC(=O)CC(c1cccc(-c3ccnc(C4CCCC4)c3)c1)=N2` [Example 353, 4-[3-(2-Cyclopentyl-pyridin-4-yl)-phenyl]-7-ethoxy-8-trifluoromethyl-1,3-dihydro-benzo[b][1,4]diazepin-2-one], which melting point is on record?
Its melting point is 192 to 193 °C.

For `O=C1CC(c2cccc(-c3ccnc(C4CCCC4)c3)c2)=Nc2cc(OCC(F)(F)F)c(C(F)(F)F)cc2N1` [Example 354, 4-[3-(2-Cyclopentyl-pyridin-4-yl)-phenyl]-7-(2,2,2-trifluoro-ethoxy)-8-trifluoromethyl-1,3-dihydro-benzo[b][1,4]diazepin-2-one], which melting point is on record?
The melting point was 147 to 148 °C.

Which melting point does the source give for `Cc1cc2c(cc1C(F)(F)F)NC(=O)CC(c1cccc(-c3ccnc(CN(C)CC(C)C)c3)c1)=N2` [Example 360, 4-(3-{2-[(Isobutyl-methyl-amino)-methyl]-pyridin-4-yl}-phenyl)-7-methyl-8-trifluoromethyl-1,3-dihydro-benzo[b][1,4]diazepin-2-one] here?
The melting point was 188 °C.

For `COCc1cc(-c2cccc(C3=Nc4cc(C)c(C(F)(F)F)cc4NC(=O)C3)c2)ccn1` [Example 361, 4-[3-(2-Methoxymethyl-pyridin-4-yl)-phenyl]-7-methyl-8-trifluoromethyl-1,3-dihydro-benzo[b][1,4]diazepin-2-one], which melting point is on record?
Its melting point is 225 °C.

Which melting point does the source give for `Cc1cc(-c2cccc(C3=Nc4cc(N(C)CC(C)C)c(C(F)(F)F)cc4NC(=O)C3)c2)ccn1` [Example 362, 7-(Isobutyl-methyl-amino)-4-[3-(2-methyl-pyridin-4-yl)-phenyl]-8-trifluoromethyl-1,3-dihydro-benzo[b][1,4]diazepin-2-one] here?
The melting point was 189 °C.

Which melting point does the source give for `Cc1cc(-c2cccc(C3=Nc4cc(N(C)C(C)C)c(C(F)(F)F)cc4NC(=O)C3)c2)ccn1` [Example 363, 7-(Isopropyl-methyl-amino)-4-[3-(2-methyl-pyridin-4-yl)-phenyl]-8-trifluoromethyl-1,3-dihydro-benzo[b][1,4]diazepin-2-one] here?
The melting point was 207 °C.

With `Cc1cc(-c2cccc(C3=Nc4cc(N5CCCC5)c(C(F)(F)F)cc4NC(=O)C3)c2)ccn1` [Example 365, 4-[3-(2-Methyl-pyridin-4-yl)-phenyl]-7-pyrrolidin-1-yl-8-trifluoromethyl-1,3-dihydro-benzo[b][1,4]diazepin-2-one] as the compound, how does the melting point read?
Its melting point is 223 °C.

With `CC(C)CN(C)c1cc2c(cc1C(F)(F)F)NC(=O)CC(c1cccc(-c3ccnc(CO)c3)c1)=N2` [Example 366, 4-[3-(2-Hydroxymethyl-pyridin-4-yl)-phenyl]-7-(isobutyl-methyl-amino)-8-trifluoromethyl-1,3-dihydro-benzo[b][1,4]diazepin-2-one] as the compound, how does the melting point read?
Its melting point is 130 °C.

Which melting point does the source give for `CC(C)N(C)c1cc2c(cc1Cl)NC(=O)CC(c1cccc(-c3ccnc(CO)c3)c1)=N2` [Example 367, 8-Chloro-4-[3-(2-hydroxymethyl-pyridin-4-yl)-phenyl]-7-(isopropyl-methyl-amino)-1,3-dihydro-benzo[b][1,4]diazepin-2-one] here?
The melting point was 143 °C.

For `CC(C)CN(C)c1cc2c(cc1Cl)NC(=O)CC(c1cccc(-c3ccnc(CO)c3)c1)=N2` [Example 368, 8-Chloro-4-[3-(2-hydroxymethyl-pyridin-4-yl)-phenyl]-7-(isobutyl-methyl-amino)-1,3-dihydro-benzo[b][1,4]diazepin-2-one], which melting point is on record?
The melting point was 161 °C.

With `CCCN(C)c1cc2c(cc1C(F)(F)F)NC(=O)CC(c1cccc(-c3ccnc(CO)c3)c1)=N2` [Example 369, 4-[3-(2-Hydroxymethyl-pyridin-4-yl)-phenyl]-7-(methyl-propyl-amino)-8-trifluoromethyl-1,3-dihydro-benzo[b][1,4]diazepin-2-one] as the compound, how does the melting point read?
The melting point was 97 °C.

With `CC(C)N(C)c1cc2c(cc1C(F)(F)F)NC(=O)CC(c1cccc(-c3ccnc(CO)c3)c1)=N2` [Example 370, 4-[3-(2-Hydroxymethyl-pyridin-4-yl)-phenyl]-7-(isopropyl-methyl-amino)-8-trifluoromethyl-1,3-dihydro-benzo[b][1,4]diazepin-2-one] as the compound, how does the melting point read?
The melting point was 124 °C.

Which melting point does the source give for `CN(C)c1cc2c(cc1C(F)(F)F)NC(=O)CC(c1cccc(-c3ccnc(CO)c3)c1)=N2` [Example 371, 7-Dimethylamino-4-[3-(2-hydroxymethyl-pyridin-4-yl)-phenyl]-8-trifluoromethyl-1,3-dihydro-benzo[b][1,4]diazepin-2-one] here?
Its melting point is 223 °C.

Which melting point does the source give for `Cc1cc2c(cc1Cl)NC(=O)CC(c1cccc(-c3ccnc(CNC4CC4)c3)c1)=N2` [Example 378, 8-Chloro-4-[3-(2-cyclopropylaminomethyl-pyridin-4-yl)-phenyl]-7-methyl-1,3-dihydro-benzo[b][1,4]diazepin-2-one] here?
The melting point was 171 °C.

Which melting point does the source give for `O=C1CC(c2cccc(-c3ccnc(CNC4CC4)c3)c2)=Nc2cc(OCC(F)(F)F)c(C(F)(F)F)cc2N1` [Example 379, 4-[3-(2-Cyclopropylaminomethyl-pyridin-4-yl)-phenyl]-7-(2,2,2-trifluoro-ethoxy)-8-trifluoromethyl-1,3-dihydro-benzo[b][1,4]diazepin-2-one] here?
The melting point was 150 °C.

With `O=C1CC(c2cccc(-c3ccnc(CN4CCCC4)c3)c2)=Nc2cc(OCC(F)(F)F)c(C(F)(F)F)cc2N1` [Example 380, 4-[3-(2-Pyrrolidin-1-ylmethyl-pyridin-4-yl)-phenyl]-7-(2,2,2-trifluoro-ethoxy)-8-trifluoromethyl-1,3-dihydro-benzo[b][1,4]diazepin-2-one] as the compound, how does the melting point read?
Its melting point is 182 °C.

For `O=C1CC(c2cccc(-c3ccnc(CN4CCC4)c3)c2)=Nc2cc(OCC(F)(F)F)c(C(F)(F)F)cc2N1` [Example 381, 4-[3-(2-Azetidin-1-ylmethyl-pyridin-4-yl)-phenyl]-7-(2,2,2-trifluoro-ethoxy)-8-trifluoromethyl-1,3-dihydro-benzo[b][1,4]diazepin-2-one], which melting point is on record?
Its melting point is 190 °C.

Which melting point does the source give for `CCCN(C)Cc1cc(-c2cccc(C3=Nc4cc(OCC(F)(F)F)c(C(F)(F)F)cc4NC(=O)C3)c2)ccn1` [Example 382, 4-(3-{2-[(Methyl-propyl-amino)-methyl]-pyridin-4-yl}-phenyl)-7-(2,2,2-trifluoro-ethoxy)-8-trifluoromethyl-1,3-dihydro-benzo[b][1,4]diazepin-2-one] here?
Its melting point is 155 °C.

Which melting point does the source give for `Cc1cc(-c2cccc(C3=Nc4cc(N5CCOCC5)c(C(F)(F)F)cc4NC(=O)C3)c2)cc(C)n1` [Example 384, 4-[3-(2,6-Dimethyl-pyridin-4-yl)-phenyl]-7-morpholin-4-yl-8-trifluoromethyl-1,3-dihydro-benzo[b][1,4]diazepin-2-one] here?
Its melting point is 251 to 252 °C.

With `CCOc1cc2c(cc1C(F)(F)F)NC(=O)CC(c1cccc(-c3ccnc(N4CCOCC4)c3)c1)=N2` [Example 385, 7-Ethoxy-4-[3-(2-morpholin-4-yl-pyridin-4-yl)-phenyl]-8-trifluoromethyl-1,3-dihydro-benzo[b][1,4]diazepin-2-one] as the compound, how does the melting point read?
Its melting point is 199 to 200 °C.
